Source: patent US20110166136A1, “Calcium Ion Channel Modulators & Uses Thereof” (LECTUS THERAPEUTICS LIMITED, priority 2008, published 2011)

Tests used:
N-type/Cav2.2 channels = target: T1, N-type/Cav2.2 channels (Homo sapiens, UniProt Q00975); assay: Whole-cell patch-clamp recording of barium currents carried by calcium channels in primary dorsal root ganglion neurons; assay type: cell-based; settings: 0.5 Hz stimulation, 100-ms steps to 0 mV from -70 mV, DRG neurons with Cm <40 pf
T1 construct: Primary dorsal root ganglion neurons were isolated using standard techniques; endogenous in cells
T1 sequence (Q00975 whole entry): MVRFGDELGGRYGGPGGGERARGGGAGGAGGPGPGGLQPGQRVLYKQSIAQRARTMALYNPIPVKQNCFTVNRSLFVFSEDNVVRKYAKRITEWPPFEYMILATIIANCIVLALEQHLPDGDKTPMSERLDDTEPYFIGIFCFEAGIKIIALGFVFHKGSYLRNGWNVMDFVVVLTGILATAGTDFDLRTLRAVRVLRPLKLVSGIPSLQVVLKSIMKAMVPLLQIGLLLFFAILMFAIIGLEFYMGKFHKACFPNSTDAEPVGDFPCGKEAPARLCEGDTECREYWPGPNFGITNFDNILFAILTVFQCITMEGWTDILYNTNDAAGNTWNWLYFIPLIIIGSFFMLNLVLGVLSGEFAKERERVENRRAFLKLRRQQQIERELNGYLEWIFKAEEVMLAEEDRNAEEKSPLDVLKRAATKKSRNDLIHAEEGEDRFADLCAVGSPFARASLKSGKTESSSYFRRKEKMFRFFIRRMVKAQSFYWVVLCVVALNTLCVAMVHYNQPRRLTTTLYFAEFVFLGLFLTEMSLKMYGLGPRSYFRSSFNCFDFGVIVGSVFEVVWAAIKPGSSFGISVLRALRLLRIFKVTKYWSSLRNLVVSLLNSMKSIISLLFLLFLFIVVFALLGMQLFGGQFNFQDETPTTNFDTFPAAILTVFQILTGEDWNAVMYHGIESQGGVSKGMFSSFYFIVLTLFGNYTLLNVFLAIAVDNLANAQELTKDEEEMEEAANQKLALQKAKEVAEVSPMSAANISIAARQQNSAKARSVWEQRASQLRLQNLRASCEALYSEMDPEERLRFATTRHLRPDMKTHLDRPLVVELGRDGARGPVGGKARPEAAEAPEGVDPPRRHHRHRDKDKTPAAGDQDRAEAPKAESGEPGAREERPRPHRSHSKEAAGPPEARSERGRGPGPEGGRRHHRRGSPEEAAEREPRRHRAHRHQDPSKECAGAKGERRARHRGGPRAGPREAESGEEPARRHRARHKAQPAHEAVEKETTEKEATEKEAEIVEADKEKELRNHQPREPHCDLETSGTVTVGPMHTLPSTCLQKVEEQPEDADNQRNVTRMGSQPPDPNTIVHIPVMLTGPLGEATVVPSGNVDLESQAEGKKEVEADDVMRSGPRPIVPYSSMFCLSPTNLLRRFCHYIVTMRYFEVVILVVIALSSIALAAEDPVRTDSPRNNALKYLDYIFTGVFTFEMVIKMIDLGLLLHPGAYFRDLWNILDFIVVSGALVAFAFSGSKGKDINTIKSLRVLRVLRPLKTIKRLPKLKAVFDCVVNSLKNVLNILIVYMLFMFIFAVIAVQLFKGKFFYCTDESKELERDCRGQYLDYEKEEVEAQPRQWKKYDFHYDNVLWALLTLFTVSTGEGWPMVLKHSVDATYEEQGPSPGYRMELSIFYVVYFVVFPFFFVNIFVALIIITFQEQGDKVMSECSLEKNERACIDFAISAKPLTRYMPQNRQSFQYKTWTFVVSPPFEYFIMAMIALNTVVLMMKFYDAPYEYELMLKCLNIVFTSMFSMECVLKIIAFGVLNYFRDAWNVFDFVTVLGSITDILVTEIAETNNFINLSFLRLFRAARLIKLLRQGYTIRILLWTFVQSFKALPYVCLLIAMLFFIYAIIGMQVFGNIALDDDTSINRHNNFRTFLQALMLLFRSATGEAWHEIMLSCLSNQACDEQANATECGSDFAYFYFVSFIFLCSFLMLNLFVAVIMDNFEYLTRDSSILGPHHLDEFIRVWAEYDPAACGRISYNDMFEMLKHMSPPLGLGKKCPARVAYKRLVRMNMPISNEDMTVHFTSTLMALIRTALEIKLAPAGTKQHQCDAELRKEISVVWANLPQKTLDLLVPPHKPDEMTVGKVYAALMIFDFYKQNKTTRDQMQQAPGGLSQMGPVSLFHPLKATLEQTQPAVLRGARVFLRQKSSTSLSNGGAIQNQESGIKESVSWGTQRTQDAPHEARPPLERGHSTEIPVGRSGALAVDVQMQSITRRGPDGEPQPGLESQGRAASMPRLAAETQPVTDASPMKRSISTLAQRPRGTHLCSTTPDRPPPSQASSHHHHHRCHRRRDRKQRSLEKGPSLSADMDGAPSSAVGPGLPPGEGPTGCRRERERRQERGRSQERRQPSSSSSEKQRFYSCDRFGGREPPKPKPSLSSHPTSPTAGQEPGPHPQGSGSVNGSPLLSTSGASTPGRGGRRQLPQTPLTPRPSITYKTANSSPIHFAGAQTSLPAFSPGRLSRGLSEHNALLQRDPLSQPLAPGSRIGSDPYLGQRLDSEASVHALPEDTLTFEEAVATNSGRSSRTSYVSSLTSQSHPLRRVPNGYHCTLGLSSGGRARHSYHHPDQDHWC
T1 sequence (P54289 25-956 partner limits assumed): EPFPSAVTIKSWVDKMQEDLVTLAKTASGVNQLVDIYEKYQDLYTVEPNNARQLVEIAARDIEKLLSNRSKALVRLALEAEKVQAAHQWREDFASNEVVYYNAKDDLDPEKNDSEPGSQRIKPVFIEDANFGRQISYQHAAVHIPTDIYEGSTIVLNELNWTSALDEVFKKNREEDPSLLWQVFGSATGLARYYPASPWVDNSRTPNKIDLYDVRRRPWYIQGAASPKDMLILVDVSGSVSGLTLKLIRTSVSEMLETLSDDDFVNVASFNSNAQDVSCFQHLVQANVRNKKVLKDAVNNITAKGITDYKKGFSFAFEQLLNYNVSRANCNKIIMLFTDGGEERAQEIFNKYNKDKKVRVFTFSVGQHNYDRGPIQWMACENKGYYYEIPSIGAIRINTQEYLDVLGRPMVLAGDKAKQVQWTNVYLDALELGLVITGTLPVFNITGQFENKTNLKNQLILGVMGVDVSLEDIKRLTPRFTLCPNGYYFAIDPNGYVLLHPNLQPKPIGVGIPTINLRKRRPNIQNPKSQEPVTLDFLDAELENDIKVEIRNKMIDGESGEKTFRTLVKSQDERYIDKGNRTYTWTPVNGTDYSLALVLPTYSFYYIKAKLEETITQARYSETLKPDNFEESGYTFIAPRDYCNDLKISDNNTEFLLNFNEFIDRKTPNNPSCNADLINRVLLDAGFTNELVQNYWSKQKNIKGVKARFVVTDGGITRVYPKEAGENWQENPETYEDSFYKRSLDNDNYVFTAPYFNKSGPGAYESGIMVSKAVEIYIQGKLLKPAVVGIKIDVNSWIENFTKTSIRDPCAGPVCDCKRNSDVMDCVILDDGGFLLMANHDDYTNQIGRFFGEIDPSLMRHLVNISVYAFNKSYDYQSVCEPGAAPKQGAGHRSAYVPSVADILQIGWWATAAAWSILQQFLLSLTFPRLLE
T1 sequence (P54289 957-1103 partner limits assumed): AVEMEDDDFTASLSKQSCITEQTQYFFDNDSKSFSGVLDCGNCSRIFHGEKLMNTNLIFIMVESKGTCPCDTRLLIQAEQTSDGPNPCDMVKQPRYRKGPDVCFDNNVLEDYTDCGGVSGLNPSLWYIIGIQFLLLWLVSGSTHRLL
Procedure: Primary dorsal root ganglion neurons were isolated using standard techniques and placed in Ca^2+/Mg^2+ free phosphate-buffered saline (PBS). Hemisection of the spinal column and cord was performed and the ganglia were uncovered by gently lifting the spinal cord. They were placed in a dissociation solution (PBS) containing 1 mg/ml Collagenase (type XI) and trypsin (type II-S). Ganglia were incubated in the dissociation solution for 20 minutes at room temperature, followed by 20 minutes at 37° C. Ganglia were washed in culture medium, Dulbecco's Minimum essential medium (DMEM), supplemented with fetal calf serum (10%, Gibco), penicillin/strepromycin and glutamine (Glutamax, Gibco). Cells were dispersed by trituration and plated on poly-L-lysine-coated 35-mm dishes (BD Bioscience). Cells were kept in culture in a humidified atmosphere (37° C., 5% CO2) for up to 4 days for electrophysiological recordings. Unless otherwise noted, all reagents were purchased from Sigma-Aldrich.
Barium currents carried by calcium channels were recorded using the whole-cell configuration of the patch-clamp technique. All experiments were carried out at room temperature. Cells were bathed in an external solution containing, in mM: TEA-CI, 140; BaCl2, 5; MgCl2, 1; HEPES, 10; pH 7.3 adjusted with TEA-OH. Ba^2+ was used as a charge carrier to prevent the run-down caused by Ca^2+-activated inactivation of Ca^2+ channels. […] Electrophysiological recordings were generated and acquired with a patch-clamp amplifier (Axopatch 200B, or Multiclamp 7; Molecular devices) connected to a personal computer. Online and offline analysis was carried out using the pClamp software suite (v.9, Molecular Devices). Compounds were all prepared from 100 mM stocks in 100% dimethyl sulfoxide (DMSO) and further diluted in external solution to achieve the desired final concentration. Final DMSO concentration was always <0.1%. For the assessment of activity of the compounds, only cells with a membrane capacitance (Cm)<40 pf were used, as the Ca2+ current in these cells is carried mostly through N-type/Cav2.2 channels. Cell membrane potential was held at −70 mV and currents were elicited by a series of 100-ms steps to 0 mV, at a frequency of 0.1 Hz. After the establishment of a steady baseline current, the compound was applied to the bath. When the block induced by the compound reached a steady level, the frequency was then increased to 0.5 Hz, to assess use-dependence. After stabilization of the high frequency block, step depolarizations were stopped and cell membrane potential was kept at −70 mV for 100-120 s, after which 0.1 Hz stimulation (100 ms, 0 mV) was elicited, to assess recovery of the block. ω-conotoxin GVIA (100 nM; Alomone labs) was added at the end of the experiment to quantify the remaining N-type current. Selectivity of the compounds over non-N-type currents was studied using similar stimulation protocols, in a bath solution containing ω-conotoxin GVIA (100 nM).

[1] = system: α2-δ voltage-gated calcium channel; settings: compared with gabapentin; cited from earlier work
[2] = DRG neuron, compound concentration 1 uM

Row | Molecule | inhibition at 1 µM (N-type/Cav2.2 channels; [2]) [%] | also measured
1 | COc1ccc2c(C(=O)C(=O)N3CCN(C)CC3)c[nH]c2c1 [Compound 77, 1-(6-methoxy-1H-indol-3-yl)-2-(4-methylpiperazin-1-yl)ethane-1,2-dione] | 55 | –
2 | O=C(O)C(=O)c1c[nH]c2cc(F)ccc12 [Compound 20, 2-(6-fluoro-1H-indol-3-yl)-2-oxoacetic acid] | 55 | –
3 | CC(C)C[C@H](CN)CC(=O)O [Pregabalin, pregabalin] | – | potency in binding affinity to the α2-δ voltage-gated calcium channel relative to gabapentin [1]: six-times more potent than gabapentin
4 | COc1ccc2c(C(=O)C(=O)O)c[nH]c2c1 [Compound 31, 2-(6-methoxy-1H-indol-3-yl)-2-oxoacetic acid] | – | inhibition at 0.1 µM (N-type/Cav2.2 channels; DRG neuron, compound concentration 0.1 uM): 36%
5 | COc1ccc2c(C(=O)C(=O)N3CCOCC3)c[nH]c2c1 [Compound 57, 1-(6-methoxy-1H-indol-3-yl)-2-morpholinoethane-1,2-dione] | 44 | –
6 | ethyl 2-(6-methoxy-1H-indol-3-yl)-2-oxoacetate [Compound 40] | – | % Inhibition at 0.5 Hz (N-type/Cav2.2 channels; compound concentration 1 uM): 57%
